Results from patent US7897607B2, “Cyclic compounds” (Takeda Pharmaceutical Company Limited, priority 2005, dated 2011).

Target: T1, human CRF receptor (Homo sapiens, UniProt P34998)
T1 construct: expressed in transfected cells; host or cells: CHO cells (membrane fraction)
T1 sequence (P34998 24-415): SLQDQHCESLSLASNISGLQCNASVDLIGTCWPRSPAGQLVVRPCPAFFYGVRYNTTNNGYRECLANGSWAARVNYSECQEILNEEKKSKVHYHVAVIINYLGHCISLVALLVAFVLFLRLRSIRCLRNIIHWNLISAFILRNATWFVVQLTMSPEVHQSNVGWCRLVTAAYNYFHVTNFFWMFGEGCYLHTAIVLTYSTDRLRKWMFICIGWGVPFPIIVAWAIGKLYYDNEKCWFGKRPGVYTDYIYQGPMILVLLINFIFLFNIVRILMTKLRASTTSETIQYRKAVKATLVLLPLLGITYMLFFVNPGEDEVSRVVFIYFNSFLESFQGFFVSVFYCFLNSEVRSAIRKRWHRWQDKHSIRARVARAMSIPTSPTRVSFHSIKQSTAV
Assay: Measurement of corticotropin-releasing factor (CRF) binding inhibitory rate; receptor binding experiment with 125I-CRF
Conditions: human CRF receptor expressing CHO cellular membrane fraction, 50 pM 125I-CRF, room temperature 1 hour
Method: Measurement of Corticotropin-Releasing Factor (CRF) Binding Inhibitory Rate
A receptor binding experiment was carried out using a human CRF receptor expressing CHO cellular membrane fraction and sheep CRF, [^125I]-tyr^0(^125I-CRF). 100 nM of a test compound was incubated with 1 μg of human CRF receptor expressing CHO cellular membrane fraction and 50 pM of ^125I-CRF in a binding assay buffer (50 mM Tris-HCl, 5 mM EDTA, 10 mM MgCl2, 0.05% CHAPS, 0.1% BSA, 0.5 mM PMSF, […] pepstatin, 20 μg/ml leupeptin, pH 7.5). In addition, for measuring nonspecific binding (NSB), 0.1 μM unlabelled human Urocortin was incubated with 1 μg of human CRF receptor expressing CHO cellular membrane fraction and 50 pM of ^125I-CRF in a binding assay buffer. After a binding reaction was carried out at room temperature for 1 hour, the membrane was entrapped on a glass filter (UniFilter plate GF-C/Perkin Elmer) by suction filtration using a cell harvester (Perkin Elmer), and washed with ice-cooled 50 mM Tris-HCl (pH 7.5). After drying the glass filter, a liquid scintillation cocktail (Microscinti 0, Perkin Elmer) was added, and the radioactivity of ^125I-CRF remaining on a glass filter was measured using Topcount (Perkin Elmer).
(TB-SB)/(TB-NSB)×100 (SB: radioactivity when a compound is added, TB: maximum binding radioactivity, NSB: nonspecific binding radioactivity) was calculated to obtain a binding inhibitory rate under the presence of 1,000 nM or 100 nM of each test substances.

Row | Structure (SMILES) | inhibition [%]
1 | CCC(CC)Oc1nn(C)c(=O)c2c1ccn2-c1ccc(C)cc1C [Example 96, 1-(2,4-Dimethylphenyl)-4-(1-ethylpropoxy)-6-methyl-1,6-dihydro-7H-pyrrolo[2,3-d]pyridazin-7-one] | > 80
2 | CCC(CC)n1c2cccc(-c3c(C)cc(C)cc3C)c2c(=O)n1C [Example 150, 1-(1-ethylpropyl)-4-mesityl-2-methyl-1,2-dihydro-3H-indazol-3-one] | > 80
3 | CCCC(CCC)n1cc(C)c(=O)c2c(-c3ccc(C)cc3C)cccc21 [Example 24, 5-(2,4-Dimethylphenyl)-3-methyl-1-(1-propylbutyl)quinolin-4(1H)-one] | > 80
4 | CCCN(CCC)c1nc2c(c(-c3ccc(C)cc3C)nn2C)c(=O)n1C [9 (A), 3-(2,4-Dimethylphenyl)-6-dipropylamino-1,5-dimethyl-1,5-dihydro-4H-pyrazolo[3,4-d]pyrimidin-4-one] | > 80
5 | CCCN(CCC)c1nc2c(c(-c3c(C)cc(C)cc3C)cn2C)c(=O)n1C [Example 41, 2-(Dipropylamino)-5-mesityl-3,7-dimethyl-3,7-dihydro-4H-pyrrolo[2,3-d]pyrimidin-4-one] | > 80
6 | CCCN(CCC)c1cc(C)c(=O)n2c(-c3c(C)cc(C)cc3C)cccc12 [Example 28, 1-(Dipropylamino)-6-mesityl-3-methyl-4H-quinolizin-4-one] | > 80
